Experimental data taken from paper PMC7762174 (Viruses, 2020).
Counter-ions that a name gives are not always drawn. Like-named read-outs stand apart in the source and are kept apart here.

Columns and labels:
HIV-1_91US005 [1] = settings: HIV-1, human PBMC, RT assay, 7 days; 95% CI in brackets
human PBMCs [2] = assay: Cytotoxicity in PBMC (MTS)
HIV-1_91US005 [3] = settings: HIV-1, human PBMC, p24 ELISA; 95% CI in brackets
in vitro [4] = settings: African green monkey
SARS-CoV-2 [5] = assay: microbe, parasite or virus in culture; format: cell-based
HCMV AD169-GFP = assay: microbe, parasite or virus in culture; format: cell-based, human cytomegalovirus; settings: Human betaherpesvirus 5, AD169, 168 h
[6] = test system: primary human foreskin fibroblasts (HFFs); parameters: method as in ref 28 = [28]; settings: HFF; reported previously; cited from earlier work
SARS-CoV-2 [7] = format: cell-based
in vitro [8] = settings: African green monkey; remark: listed apart in the source
Vero cells = settings: African green monkey
in vitro [9] = format: cell-based; settings: human
in vitro [10] = format: cell-based; settings: African green monkey
SARS-CoV-2 [11] = assay: microbe, parasite or virus in culture; format: cell-based; settings: for reduction in viral yield: Vero 76, 3 days
SARS-CoV-2 [12] = assay: microbe, parasite or virus in culture; format: cell-based; remark: listed apart in the source
[13] = molecular target: T1, N-terminally truncated recombinant hDHODH enzyme (Homo sapiens, UniProt Q02127); assay: In vitro inhibition of human DHODH; format: biochemical
T1 construct: using an N-terminally truncated recombinant hDHODH enzyme as described

[14] = Neutral Red assay (NRA) cytotoxicity; settings: African green monkey
in vitro [15] = settings: human
inflammation in the lung = test system: inflammation in the lung; parameters: method as in ref 57 = [57]; settings: mouse model of systemic lupus erythematosus; cited from earlier work
[16] = test system: primary human foreskin fibroblasts (HFFs)
[17] = test system: HCV subgenomic replicon of genotype 1b; assay: HCV subgenomic replicon Luc reporter assay in Huh7; format: cell-based; settings: Hepatitis C virus, Huh-7, 24 h
MPO in colonic tissue = test system: MPO in colonic tissue; parameters: method as in ref 57 = [57]; settings: murine TNBS-induced colitis model; cited from earlier work
[18] = Cytotoxicity in Huh7 replicon cells (CytoTox-1 cell proliferation assay); settings: human
[19] = test system: Huh7 human hepatoma cell line; assay: as above; settings: highest concentration (30 µM), Huh7
human PBMCs [20] = settings: 7 days, 100 µM
HIV-1_91US005 [21] = assay: microbe, parasite or virus in culture; settings: Human immunodeficiency virus 1, PBMC, 168 h
in vitro [22] = settings: human; remark: listed apart in the source
HIV-1_91US005 [23] = assay: microbe, parasite or virus in culture; settings: Human immunodeficiency virus 1, PBMC
[24] = Severe acute respiratory syndrome coronavirus 2, RT-qPCR, Vero cells, read-out: Anti-SARS-CoV-2 drug efficacy on Vero cells: EC50
[25] = Severe acute respiratory syndrome coronavirus 2, Caco-2

T1 sequence (Q02127 29-395 limits assumed): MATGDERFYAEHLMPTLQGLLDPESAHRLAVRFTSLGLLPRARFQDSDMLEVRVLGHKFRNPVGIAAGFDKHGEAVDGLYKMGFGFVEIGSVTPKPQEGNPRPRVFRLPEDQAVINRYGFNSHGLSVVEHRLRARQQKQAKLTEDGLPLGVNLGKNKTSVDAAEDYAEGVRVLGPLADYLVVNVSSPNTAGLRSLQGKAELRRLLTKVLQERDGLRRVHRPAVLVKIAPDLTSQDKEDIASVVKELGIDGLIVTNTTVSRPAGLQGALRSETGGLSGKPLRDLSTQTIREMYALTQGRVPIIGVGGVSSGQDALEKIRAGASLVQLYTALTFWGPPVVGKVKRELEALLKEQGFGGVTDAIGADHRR

Structure (SMILES): Cc1cn([C@H]2C[C@H](N=[N+]=[N-])[C@@H](CO)O2)c(=O)[nH]c1=O [AZT, azidothymidine/zidovudine]
- EC50 (HIV-1_91US005 [1]): 0.00038 µM
- CC50 (human PBMCs [2]): > 1 µM
- EC50 (HIV-1_91US005 [3]): 0.00027 µM

Structure (SMILES): CCN(CC)CCCC(C)Nc1ccnc2cc(Cl)ccc12 (stereo not drawn) [CQ, chloroquine, reference compound]
- CC50 (in vitro [4]): > 20 µM
- EC50 (SARS-CoV-2 [5]; [24]): 2.7 ± 0.9 µM

Structure (SMILES): Nc1nc(O)c2ncn(COC(CO)CO)c2n1 [GCV, ganciclovir, reference compound]
- EC50 (HCMV AD169-GFP): 1.69 ± 0.8 µM
- CC50 [6]: > 15 µM

Structure (SMILES): COc1cccc(-c2ccc(NC(=O)C3=C(C(=O)O)CCC3)c(F)c2)c1 [IMU-838, calcium salt of vidofludimus]
- inhibition of viral RNA production (mAb-dsRNA) (SARS-CoV-2 [7]): concentration-dependent IMU-838-mediated inhibition
- inhibition of viral spike protein production (mAb-S) (SARS-CoV-2 [7]): concentration-dependent IMU-838-mediated inhibition
- viability at 3 days, 100 µM (in vitro [8]): 95%
- CC50 (in vitro [8]; CC50): 88.1 ± 3.7 µM
- CC50 (Vero cells): > 100 µM
- CC50 (in vitro [9]): > 60 µM
- CC90 (in vitro [9]): > 60 µM
- CC90 (in vitro [10]): > 100 µM
- EC50 (SARS-CoV-2 [5]; Severe acute respiratory syndrome coronavirus 2, Vero 76, 72 h, read-out: EC50, replicate 3 RT-qPCR): 10 ± 9 µM
- EC50 (SARS-CoV-2 [5]; Severe acute respiratory syndrome coronavirus 2, Vero, 48 h, read-out: EC50, replicate 1 RT-qPCR): 6.8 µM
- EC50 (SARS-CoV-2 [5]; Severe acute respiratory syndrome coronavirus 2, Vero, 72 h, read-out: EC50, replicate 2 RT-qPCR): 6 µM
- EC50 (SARS-CoV-2 [5]; Severe acute respiratory syndrome coronavirus 2, Vero, read-out: Mean EC50 of replicates 1-3): 7.6 ± 5.8 µM
- EC90 (SARS-CoV-2 [11]; Severe acute respiratory syndrome coronavirus 2, Vero 76, 72 h): 6.2 ± 1.9 µM
- reduction in viral yield (SARS-CoV-2 [11]; drug alone at 10 µM): ~ 1.7 fold log unit
- reduction of viral plaques (SARS-CoV-2 [12]; 30 µM, CaCo-2, 72 h p.i.): ~ 1.8 log unit
- EC50 (SARS-CoV-2 [12]; [25]): 7.5 to 15 µM
- EC90 (SARS-CoV-2 [12]; [25]): 15 to 30 µM

Structure (SMILES): COC(=O)c1c(-c2c(F)cccc2Cl)noc1-c1cnn(-c2cccc(Cl)c2)c1C(F)(F)F [IMU-CO3]
- IC50 [13]: 0.041 µM
- CC50 at 3 days (in vitro [8]; CC50 values on Vero cells): > 100 µM
- EC50 (SARS-CoV-2 [5]; [24]): 15.5 ± 4.6 µM

Structure (SMILES): CCC(CC)COC(=O)[C@H](C)N[P@](=O)(OC[C@H]1O[C@@](C#N)(c2ccc3c(N)ncnn23)[C@H](O)[C@@H]1O)Oc1ccccc1 [RDV, remdesivir]
- CC50 (in vitro [4]): > 20 µM
- EC50 (SARS-CoV-2 [5]; [24]): 1.7 ± 1 µM
- CC50 [14]: > 100 µM
- reduction in viral yield (SARS-CoV-2 [11]; drug alone at 5 µM): ~ 3.8 fold log unit
- reduction in viral yield (SARS-CoV-2 [11]; drug alone at 10 µM): > 4.0 fold log unit

Structure (SMILES): C/C(O)=C(\C#N)C(=O)Nc1ccc(C(F)(F)F)cc1 [TFNM, teriflunomide]
- EC90 (SARS-CoV-2 [11]; Severe acute respiratory syndrome coronavirus 2, 72 h, Vero 76, USA_WA1/2020, MOI 0.002, VYR, 3 days p.i., read-out: EC90): 14 µM

Structure (SMILES): COc1cccc(-c2ccc(NC(=O)C3=C(C(=O)O)CCC3)c(F)c2)c1 [Vido, vidofludimus]
- EC50 (HCMV AD169-GFP): 7.4 ± 0.1 µM
- CC50 (in vitro [15]): > 100 µM
- inflammation in the lung (inflammation in the lung): decreased inflammation in the lung
- cytotoxicity [16]: absence of detectable cytotoxicity
- EC50 [17]: 5.9 µM
- levels of MPO in colonic tissue (MPO in colonic tissue): reduced the levels of MPO in colonic tissue
- CC50 at 24 h [18]: > 30 µM
- reduction in cell viability [19]: 34%
- reduction in cell viability (human PBMCs [20]): 46.8%
- EC50 (HIV-1_91US005 [21]): 2.1 µM
- CC50 at 7 days (in vitro [22]): > 100 µM
- EC50 (HIV-1_91US005 [23]): 1.3 µM
